Measured values published in patent US5332739A, “Pyrimidinedione derivatives and antiarrhythmic agents containing same” (Mitsui Toatsu Chemicals, Incorporated, priority 1990, dated 1994).
Where a name gives a salt, the structure may show the parent alone.

Legend:
[1] = tested on: ventricular muscle (right ventricle); assay: Influence on Ventricular Muscle Refractory Period (ERP); assay type: in vivo, mongrel adult dog; details: Canis lupus familiaris, iv, anesthetized dog, read-out: ERP (%; extensibility of refractory period); for change in vivo at 0.1 mg/kg: Dose 0.1 mg/kg i.v.; for change in vivo at 0.3 mg/kg: Dose 0.3 mg/kg i.v.; for change in vivo at 1 mg/kg: Dose 1.0 mg/kg i.v.; for change in vivo at 3 mg/kg: Dose 3.0 mg/kg i.v.
Experimental: Refractory periods were measured in the following manner before and after each of the compounds and d-sotalol shown an Table A was separately administered to a vein or a duodenum, and ERP (%; extensibility of refractory period) was calculated from the measured values in accordance with the following formula: […]
W: Refractory period after administration
Y: Refractory period before administration
To a mongrel adult dog, 30 mg/kg of pentobarbital was administered intravenously, and after being anesthetized, a pair of silver-silver chloride electrodes separated by 3 mm was sewn on an opened right ventricule, and electrical stimulation was given at an interval of 400 msec at a duration time of 4 msec under a current twice as much as the threshold. Afterward, a small amount of alcohol was injected into a sinus artery in order to extinguish a pacemaker activity, and the ventricular refractory period (ERP) was measured under ventricule pacing.
That is, 1 train comprised 10 stimulations, and an interval between two of the trains was usually 400 msec. At the time of the refractory period measurement, however, the above interval was shortened every 10 smec, and the interval between the trains at the time when reaction to the first stimulation of the train disappeared was regarded as the refractory period.
In this case, the electrical stimulation was fed in accordance with a program by a heart stimulation device (Diamedical Co., Ltd.; DHM-226-3).

[2] = tested on: Purkinje fiber of the right ventricular free wall; assay: Influence on Myocardial Action Potential Duration Time (APD75); assay type: cell-based, hybrid adult dog; details: Canis lupus familiaris, 20 min, 20 minutes' incubation, 1 Hz, 37° C.; for percent prolongation of action potential duration (APD75) at 1 µg/mL: Dose 1.0 (μg, ml); for percent prolongation of action potential duration (APD75) at 3 µg/mL: Dose 3.0 (μg, ml); for percent prolongation of action potential duration (APD75) at 10 µg/mL: Dose 10.0 (μg, ml); for percent prolongation of action potential duration (APD75) at 0.3 µg/mL: Dose 0.3 (μg, ml)
Experimental: To a hybrid adult dog, 30 mg/kg of pentobarbital was administered through a vein, and after being anesthetized, the heart was removed. Afterward, the right ventricular free wall of the heart was cut and taken out in a Tyrode solution.
The taken right ventricular free wall was fixed in an incubator at 37° C., and a nutritional solution (20 ml of the Tyrode solution) was refluxed.
In this isolated condition, myocardial action potential duration times (APD75) were measured before and after the administration of the respective compounds prepared in the above examples in Table A and d-sotalol as a control medicine, and APD75 (%) was calculated from the measured results in accordance with the formula: […]
A: APD75 before administration
B: APD75 after administration
Here, APD75 was measured as follows: A field stimulation of 1 Hz was given to the right ventricular free wall, and any variation of an action potential was depicted on an oscilloscope via a glass microelectrode (10 to 20 M.OMEGA.) thrust into a Purkinje fiber of the free wall and via an amplifier. Afterward, a waveform on the oscilloscope was analyzed by the use of a computer, and the time of from a point of the action potential generation to a point of 75% repolarization was measured. This measured time was regarded as the myocardial action potential duration time (APD75).
The compounds and d-sotalol shown in Table A were separately added to the refluxing nutritional solution (20 ml), and after 20 minutes' incubation, APD75 after the administration was calculated from the variation of the myocardial action potential duration time.
Incidentally, this test was carried out in accordance with a Sato et al's method [H. Sato, K. Hashimoto, Arzneimeittel Forschung, 34 (1), 3a, 376-380 (1984)].

| Structure (SMILES) | change in vivo at 0.1 mg/kg [1] | change in vivo at 0.3 mg/kg [1] | change in vivo at 1 mg/kg [1] | percent prolongation of action potential duration (APD75) at 1 µg/mL [2] | percent prolongation of action potential duration (APD75) at 3 µg/mL [2] | change in vivo at 3 mg/kg [1] | percent prolongation of action potential duration (APD75) at 10 µg/mL [2] | percent prolongation of action potential duration (APD75) at 0.3 µg/mL [2] |
| --- | --- | --- | --- | --- | --- | --- | --- | --- |
| Cn1c(N2CCN(CCc3ccc(Cl)cc3)CC2)cc(=O)n(C)c1=O [Compound 91, 1,3-dimethyl-6-[4-(2-[4-chlorophenyl]-ethyl)piperazin-1-yl]-2,4(1H,3H)-pyrimidinedione.hydrochloride] | 3.5% | 6.5% | 14.5% | 13% | 25% | – | – | – |
| Cn1c(N2CCN(CCCOc3ccccc3N=[N+]=[N-])CC2)cc(=O)n(C)c1=O [Compound 36] | 0% | 7.1% | 7.1% | – | 17% | 14.3% | – | – |
| Cn1c(N2CCN(CCc3ccccc3)CC2)cc(=O)n(C)c1=O [Compound 88, 1,3-dimethyl-6-[4-(2-phenylethyl)-piperazin-1-yl]-2,4(1H,3H)-pyrimidinedione.hydrochloride] | 2% | 6% | 11.7% | – | 26% | – | 49% | – |
| CC(=O)Nc1ccccc1OCCCN1CCN(c2cc(=O)n(C)c(=O)n2C)CC1 [Compound 18] | – | 6.3% | 12.5% | – | 11% | – | 22% | – |
| Cn1c(N2CCN(CCCOc3ccc(Cl)cc3C(=O)c3ccccc3)CC2)cc(=O)n(C)c1=O [Compound 51] | 0% | 6.3% | 6.3% | 19% | 24% | 12.5% | – | 11% |
| Cn1c(N2CCN(CCCOc3ccc(NS(C)(=O)=O)cc3Cl)CC2)cc(=O)n(C)c1=O [Compound 111, 1,3-dimethyl-6-[4-(3-[2-chloro-4-methanesulfonamidophenoxy]propyl)piperazin-1-yl]-2,4(1H,3H)-pyrimidinedione.hydrochloride] | 0% | 2.4% | 8.6% | – | 19% | 15.2% | 36% | – |
| CC(C)NC[C@@H](O)c1ccc(NS(C)(=O)=O)cc1 [d-sotalol, reference compound] | 1.7% | 6.7% | 8.7% | 3% | 7.4% | 15.5% | 15.8% | 0% |
| Cn1c(N2CCN(CCCOc3ccccc3C(=O)C3CCCC3)CC2)cc(=O)n(C)c1=O [Compound 39] | – | – | – | – | 26% | – | 48% | – |
| Cn1c(N2CCN(CCCOc3ccc(Cl)cc3C(=O)c3ccccn3)CC2)cc(=O)n(C)c1=O [Compound 52] | – | – | – | 9% | 14% | – | 18% | – |
| CCN(CCCc1ccccc1)CCNc1cc(=O)n(C)c(=O)n1C [Compound 121, 1,3-dimethyl-6-[2-(N-ethyl-3-phenylpropylamino)ethylamino]-2,4(1H,3H)-pyrimidinedione.oxalate] | – | – | – | 9% | 14% | – | 16% | – |
